Patent publication US12643903B2, “Bifunctional compounds for degradation of EGFR and related methods of use” (BeiGene, Ltd., priority 2020, dated 2026)

Assays:
EGFR DTC = assay: Cell Degradation 3: EGFR degradation in BaF3 cells (DTC), HTRF assay; format: cell-based; details: 16 h treatment, EGFR degradation by HTRF
Procedure: (§1) Cell Degradation 3 Cell Treatment
(§2) BaF3 cells are treated with compounds diluted in 0.2% DMSO, dilution is done according to the following protocol: (1) make 500× stock solution in DMSO from 5 mM by 4-fold dilution, total 8 doses were included; (2) make 2× solution in cell culture medium by transferring 0.5 μl 500× stock solution into 125 μl medium; (3) 30 μl of 2× solution is added to cells and incubate for 16 h.
(§3) After 16 h treatment, add 20 μl 4×lysis buffer to each well; seal the plate and incubate 1 hour at room temperature on a plate shaker; Once the cells are lysed, 16 μL of cell lysate are transferred to a PE 384-well HTRF detection plate (for triple mutant cells, the lysate were diluted by the qual volume 1×lysis buffer before transfer); 4 μL of pre-mixed HTRF antibodies are added to each well; Cover the plate with a plate sealer, spin 1000 rpm for 1 min, Incubate overnight at room temperature; Read on BMG PheraStar with HTRF protocol (337 nm-665 nm-620 nm).
(§4) The IC50 (DC50) value of a compound can be obtained by fitting the following equation Y=Bottom+(TOP−Bottom)/(1+((IC50/X)^hillslope))
(§5) Wherein, X and Y are known values, and IC50, Hillslope, Top and Bottom are the parameters obtained by fitting with software. Y is the inhibition percentage (calculated from the equation), X is the concentration of the compound; IC50 is the concentration of the compound when the 50% inhibition is reached. The smaller the IC50 value is, the stronger the inhibitory ability of the compound is. Vice versa, the higher the IC50 value is, the weaker the ability the inhibitory ability of the compound is; Hillslope represents the slope of the fitted curve, generally around 1*; Bottom represents the minimum value of the curve obtained by data fitting, which is generally 0%±20%; Top represents the maximum value of the curve obtained by data fitting, which is generally 100%±20%. The experimental data were fitted by calculating and analyzing with Dotmatics data analysis software.

EGFR LTC = molecular target: T1, EGFR LTC (Homo sapiens, UniProt P00533, C797S/L858R/T790M); assay: Cell Degradation 3: EGFR degradation in BaF3 cells (LTC), HTRF assay; format: cell-based; details: 16 h treatment, EGFR degradation by HTRF
T1 construct: expressed in transfected cells; host or cells: BaF3
Procedure: as §1, §2, §3, §4, §5

T1 sequence (P00533 25-1210 T790M/C797S/L858R): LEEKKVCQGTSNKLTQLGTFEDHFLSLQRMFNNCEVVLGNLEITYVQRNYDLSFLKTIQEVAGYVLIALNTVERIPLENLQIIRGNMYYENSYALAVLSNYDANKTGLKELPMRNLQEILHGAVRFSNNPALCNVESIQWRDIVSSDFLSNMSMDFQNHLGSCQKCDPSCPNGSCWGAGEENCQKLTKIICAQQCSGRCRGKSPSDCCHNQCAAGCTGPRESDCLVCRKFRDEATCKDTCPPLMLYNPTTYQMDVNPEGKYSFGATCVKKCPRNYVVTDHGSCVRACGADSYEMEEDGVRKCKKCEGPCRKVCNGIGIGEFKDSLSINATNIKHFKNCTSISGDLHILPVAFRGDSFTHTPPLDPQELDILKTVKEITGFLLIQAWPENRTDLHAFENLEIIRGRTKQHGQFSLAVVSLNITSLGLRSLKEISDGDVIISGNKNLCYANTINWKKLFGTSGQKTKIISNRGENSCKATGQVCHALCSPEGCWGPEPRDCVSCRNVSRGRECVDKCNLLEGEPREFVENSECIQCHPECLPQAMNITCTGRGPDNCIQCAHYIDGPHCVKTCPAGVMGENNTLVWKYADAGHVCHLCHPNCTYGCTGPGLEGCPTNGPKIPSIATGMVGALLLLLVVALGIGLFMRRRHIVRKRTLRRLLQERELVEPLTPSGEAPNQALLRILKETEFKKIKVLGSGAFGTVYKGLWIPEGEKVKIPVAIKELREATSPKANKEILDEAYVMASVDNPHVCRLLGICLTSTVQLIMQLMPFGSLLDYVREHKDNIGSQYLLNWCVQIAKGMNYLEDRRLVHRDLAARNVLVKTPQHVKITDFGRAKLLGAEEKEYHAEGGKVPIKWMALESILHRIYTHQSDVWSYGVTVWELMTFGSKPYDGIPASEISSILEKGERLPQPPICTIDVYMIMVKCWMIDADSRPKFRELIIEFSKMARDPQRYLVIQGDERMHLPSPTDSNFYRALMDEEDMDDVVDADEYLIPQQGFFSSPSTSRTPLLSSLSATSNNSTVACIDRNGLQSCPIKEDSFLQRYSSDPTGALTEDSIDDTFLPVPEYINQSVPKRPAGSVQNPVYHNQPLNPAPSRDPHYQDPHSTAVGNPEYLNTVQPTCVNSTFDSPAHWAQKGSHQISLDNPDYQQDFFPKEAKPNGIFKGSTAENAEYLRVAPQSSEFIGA

SMILES	DC50 (EGFR DTC) [nM]	DC50 (EGFR LTC) [nM]
COc1cc(N2CCC(N3CCN(C[C@H]4CCN(c5ccc6c(c5)C(=O)N(C5CCC(=O)NC5=O)C6=O)C4)CC3)CC2)c(C)cc1Nc1ncc(Br)c(Nc2cccc3c2N(S(C)(=O)=O)CC3)n1 (stereo partly drawn) [Example 156, 5-((R)-3-((4-(1-(4-((5-bromo-4-((1-(methylsulfonyl)indolin-7-yl)amino)pyrimidin-2-yl)amino)-5-methoxy-2-methylphenyl)piperidin-4-yl)piperazin-1-yl)methyl)pyrrolidin-1-yl)-2-(2,6-dioxopiperidin-3-yl)isoindoline-1,3-dione]	21	33
COc1cc(N2CCC(N3CCN(CCN4CCC(c5ccc(NC6CCC(=O)NC6=O)cc5)CC4)CC3)CC2)c(C)cc1Nc1ncc(Br)c(Nc2cccc3c2N(S(C)(=O)=O)CC3)n1 (stereo not drawn) [Example 157, 3-((4-(1-(2-(4-(1-(4-((5-bromo-4-((1-(methylsulfonyl)indolin-7-yl)amino)pyrimidin-2-yl)amino)-5-methoxy-2-methylphenyl)piperidin-4-yl)piperazin-1-yl)ethyl)piperidin-4-yl)phenyl)amino)piperidine-2,6-dione]	300	396
COc1cc(N2CCC(N3CCN(C(=O)[C@H]4C[C@H](N(C)c5ccc6c(c5)C(=O)N(C5CCC(=O)NC5=O)C6=O)C4)CC3)CC2)c(C)cc1Nc1ncc(Br)c(Nc2cccc3c2N(S(C)(=O)=O)CC3)n1 (stereo partly drawn) [Example 158, 5-(((1r,3r)-3-(4-(1-(4-((5-bromo-4-((1-(methylsulfonyl)indolin-7-yl)amino)pyrimidin-2-yl)amino)-5-methoxy-2-methylphenyl)piperidin-4-yl)piperazine-1-carbonyl)cyclobutyl)(methyl)amino)-2-(2,6-dioxopiperidin-3-yl)isoindoline-1,3-dione]	19	41
CCc1cc(Nc2ncc(Br)c(Nc3cccc4c3N(S(C)(=O)=O)CC4)n2)c(OC)cc1N1CCC(N2CCN(CCC3CCN(c4cc(F)c(C5CCC(=O)NC5=O)c(F)c4)CC3)CC2)CC1 (stereo not drawn) [Example 160, 3-(4-(4-(2-(4-(1-(4-((5-bromo-4-((1-(methylsulfonyl)indolin-7-yl)amino)pyrimidin-2-yl)amino)-2-ethyl-5-methoxyphenyl)piperidin-4-yl)piperazin-1-yl)ethyl)piperidin-1-yl)-2,6-difluorophenyl)piperidine-2,6-dione]	150	162
COc1cc(N2CCC(N3CCN(CCc4ccc(C5CCC(=O)NC5=O)c(F)c4)CC3)CC2)c(C)cc1Nc1nc(Nc2cccc3c2N(S(C)(=O)=O)CC3)c2cc[nH]c2n1 (stereo not drawn) [Example 162, 3-(2-fluoro-4-(2-(4-(1-(5-methoxy-2-methyl-4-((4-((1-(methylsulfonyl)indolin-7-yl)amino)-7H-pyrrolo[2,3-d]pyrimidin-2-yl)amino)phenyl)piperidin-4-yl)piperazin-1-yl)ethyl)phenyl)piperidine-2,6-dione]	78	> 10000
COc1cc(N2CCC(N3CCN(C[C@@H]4CCN(c5ccc6c(c5)C(=O)N(C5CCC(=O)NC5=O)C6=O)C4)CC3)CC2)c(C)cc1Nc1ncc(Br)c(Nc2cccc3c2N(S(C)(=O)=O)CC3)n1 (stereo partly drawn) [Example 164, 5-((S)-3-((4-(1-(4-((5-bromo-4-((1-(methylsulfonyl)indolin-7-yl)amino)pyrimidin-2-yl)amino)-5-methoxy-2-methylphenyl)piperidin-4-yl)piperazin-1-yl)methyl)pyrrolidin-1-yl)-2-(2,6-dioxopiperidin-3-yl)isoindoline-1,3-dione]	52	60
COc1cc(N2CCC(N3CCN(C[C@H]4C[C@H](N(C)c5ccc6c(c5)C(=O)N(C5CCC(=O)NC5=O)C6=O)C4)CC3)CC2)c(C)cc1Nc1ncc(Br)c(Nc2cccc3c2N(S(C)(=O)=O)CC3)n1 (stereo partly drawn) [Example 165, 5-(((1r,3r)-3-((4-(1-(4-((5-bromo-4-((1-(methylsulfonyl)indolin-7-yl)amino)pyrimidin-2-yl)amino)-5-methoxy-2-methylphenyl)piperidin-4-yl)piperazin-1-yl)methyl)cyclobutyl)(methyl)amino)-2-(2,6-dioxopiperidin-3-yl)isoindoline-1,3-dione]	91	100
COc1cc(N2CCC(N3CCN(CCOc4cccc5c4C(=O)N(C4CCC(=O)NC4=O)C5=O)CC3)CC2)c(C)cc1Nc1ncc(Br)c(Nc2cccc3c2N(S(C)(=O)=O)CC3)n1 (stereo not drawn) [Example 166, 4-(2-(4-(1-(4-((5-bromo-4-((1-(methylsulfonyl)indolin-7-yl)amino)pyrimidin-2-yl)amino)-5-methoxy-2-methylphenyl)piperidin-4-yl)piperazin-1-yl)ethoxy)-2-(2,6-dioxopiperidin-3-yl)isoindoline-1,3-dione]	175	247
COc1cc(N2CCC(N3CCN(C4CCN(c5ccc6c(c5)C(=O)N(C5CCC(=O)NC5=O)C6=O)CC4)CC3)CC2)c(C)cc1Nc1ncc(Br)c(Nc2cccc3c2N(S(C)(=O)=O)CC3)n1 (stereo not drawn) [Example 167, 5-(4-(4-(1-(4-((5-bromo-4-((1-(methylsulfonyl)indolin-7-yl)amino)pyrimidin-2-yl)amino)-5-methoxy-2-methylphenyl)piperidin-4-yl)piperazin-1-yl)piperidin-1-yl)-2-(2,6-dioxopiperidin-3-yl)isoindoline-1,3-dione]	225	> 10000
COc1cc(N2CCC(N3CCN(CC4CN(c5ccc(C6CCC(=O)NC6=O)c(F)c5)C4)CC3)CC2)c(C)cc1Nc1ncc(Br)c(Nc2cccc3c2N(S(C)(=O)=O)CC3)n1 (stereo not drawn) [Example 169, 3-(4-(3-((4-(1-(4-((5-bromo-4-((1-(methylsulfonyl)indolin-7-yl)amino)pyrimidin-2-yl)amino)-5-methoxy-2-methylphenyl)piperidin-4-yl)piperazin-1-yl)methyl)azetidin-1-yl)-2-fluorophenyl)piperidine-2,6-dione]	39	57
COc1cc(N2CCC(N3CCN(C(=O)[C@H]4C[C@H](N(C)c5ccc(C6CCC(=O)NC6=O)cc5)C4)CC3)CC2)c(C)cc1Nc1ncc(Br)c(Nc2cccc3c2N(S(C)(=O)=O)CC3)n1 (stereo partly drawn) [Example 170, 3-(4-(((1r,3r)-3-(4-(1-(4-((5-bromo-4-((1-(methylsulfonyl)indolin-7-yl)amino)pyrimidin-2-yl)amino)-5-methoxy-2-methylphenyl)piperidin-4-yl)piperazine-1-carbonyl)cyclobutyl)(methyl)amino)phenyl)piperidine-2,6-dione]	8	23
COc1cc(N2CCC(N3CCN(C(=O)C4CN(c5ccc6c(c5)C(=O)N(C5CCC(=O)NC5=O)C6)C4)CC3)CC2)c(C)cc1Nc1ncc(Br)c(Nc2cccc3c2N(S(C)(=O)=O)CC3)n1 (stereo not drawn) [Example 171, 3-(6-(3-(4-(1-(4-((5-bromo-4-((1-(methylsulfonyl)indolin-7-yl)amino)pyrimidin-2-yl)amino)-5-methoxy-2-methylphenyl)piperidin-4-yl)piperazine-1-carbonyl)azetidin-1-yl)-1-oxoisoindolin-2-yl)piperidine-2,6-dione]	4	9
COc1cc(N2CCC(N3CCN(CCNc4cccc5c4CN(C4CCC(=O)NC4=O)C5=O)CC3)CC2)c(C)cc1Nc1ncc(Br)c(Nc2cccc3c2N(S(C)(=O)=O)CC3)n1 (stereo not drawn) [Example 173, 3-(4-((2-(4-(1-(4-((5-bromo-4-((1-(methylsulfonyl)indolin-7-yl)amino)pyrimidin-2-yl)amino)-5-methoxy-2-methylphenyl)piperidin-4-yl)piperazin-1-yl)ethyl)amino)-1-oxoisoindolin-2-yl)piperidine-2,6-dione]	15	27
COc1cc(N2CCC(N3CCN(CCc4cc(Cl)c(C5CCC(=O)NC5=O)cc4F)CC3)CC2)c(C)cc1Nc1ncc(Br)c(Nc2cccc3c2N(S(C)(=O)=O)CC3)n1 (stereo not drawn) [Example 174, 3-(4-(2-(4-(1-(4-((5-bromo-4-((1-(methylsulfonyl)indolin-7-yl)amino)pyrimidin-2-yl)amino)-5-methoxy-2-methylphenyl)piperidin-4-yl)piperazin-1-yl)ethyl)-2-chloro-5-fluorophenyl)piperidine-2,6-dione]	30	69
COc1cc(N2CCC(N3CCN(CC4CCN(c5ccc6c(c5)CN(C5CCC(=O)NC5=O)C6=O)CC4)CC3)CC2)c(C)cc1Nc1ncc(Br)c(Nc2cccc3c2N(S(C)(=O)=O)CC3)n1 (stereo not drawn) [Example 175, 3-(5-(4-((4-(1-(4-((5-bromo-4-((1-(methylsulfonyl)indolin-7-yl)amino)pyrimidin-2-yl)amino)-5-methoxy-2-methylphenyl)piperidin-4-yl)piperazin-1-yl)methyl)piperidin-1-yl)-1-oxoisoindolin-2-yl)piperidine-2,6-dione]	17	31
